For this assay, the target named is T1, rat PEPT1 (Rattus norvegicus, UniProt P51574).
T1 construct: Rat and human PEPT1 and PEPT2 transporter cDNAs were subcloned into a modified pGEM plasmid; expressed in transfected cells; host or cells: Xenopus laevis oocytes injected with in vitro transcribed RNA
T1 sequence (P51574 1-710): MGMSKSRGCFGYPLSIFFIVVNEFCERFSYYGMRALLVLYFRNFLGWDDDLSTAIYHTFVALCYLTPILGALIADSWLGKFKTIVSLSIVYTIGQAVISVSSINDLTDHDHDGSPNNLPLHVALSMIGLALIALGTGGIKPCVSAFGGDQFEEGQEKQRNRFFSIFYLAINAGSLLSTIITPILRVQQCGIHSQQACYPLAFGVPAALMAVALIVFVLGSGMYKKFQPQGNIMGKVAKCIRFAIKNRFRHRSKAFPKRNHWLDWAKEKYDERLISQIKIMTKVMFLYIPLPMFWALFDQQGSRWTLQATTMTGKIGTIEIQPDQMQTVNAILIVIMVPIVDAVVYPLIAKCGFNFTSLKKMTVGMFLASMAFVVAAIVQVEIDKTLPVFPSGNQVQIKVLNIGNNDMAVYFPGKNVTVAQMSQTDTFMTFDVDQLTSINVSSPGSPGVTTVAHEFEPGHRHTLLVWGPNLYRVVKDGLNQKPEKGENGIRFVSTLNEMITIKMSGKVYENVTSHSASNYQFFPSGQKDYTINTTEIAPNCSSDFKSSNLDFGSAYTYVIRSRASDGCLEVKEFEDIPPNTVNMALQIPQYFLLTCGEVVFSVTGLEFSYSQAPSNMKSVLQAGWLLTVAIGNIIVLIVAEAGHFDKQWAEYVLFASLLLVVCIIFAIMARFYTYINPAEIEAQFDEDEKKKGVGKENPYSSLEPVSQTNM
The experiment in a line: Electrogenic transport (induced current) in Xenopus oocytes transfected with rat PEPT1. Format: cell-based. The method, then:
Rat and human PEPT1 and PEPT2 expressing CHO cell lines were prepared as described in PCT Application WO01/20331. Gabapentin-containing dipeptides were evaluated for interaction with the peptide transporters using a radiolabeled substrate uptake assay in a competitive inhibition format, as described in PCT Application WO01/20331. Transport-induced currents were also measured in Xenopus oocytes transfected with rat and human PEPT1 and PEPT2.
RNA preparation: Rat and human PEPT1 and PEPT2 transporter cDNAs were subcloned into a modified pGEM plasmid that contains 5′ and 3′ untranslated sequences from the Xenopus β-actin gene. These sequences increase RNA stability and protein expression. Plasmid cDNA was linearized and used as template for in vitro transcription (Epicentre Technologies transcription kit, 4:1 methylated:non-methylated guanosine triphosphate(GTP)).
Xenopus oocyte isolation. Xenopus laevis frogs were anesthetized by immersion in Tricaine ([…] in deionized water) for 15 min. […]
Electrophysiology measurements. Transport currents were measured 2-14 days after injection, using a standard two-electrode electrophysiology set-up (Geneclamp 500 amplifier, Digidata 1320/PCLAMP software and ADInstruments hardware and software were used for signal acquisition). […]

The record followed here is patent US20030158254A1, “Engineering absorption of therapeutic compounds via colonic transporters” (XenoPort, Inc., priority 2002, published 2003).

For `CC(C)(N)C(=O)NCC1(CC(=O)O)CCCCC1` [Compound V, a-aminoisobutyryl gabapentin], the “Vmax relative to reference substrate Gly-Sar” value (1 mM, oocytes transfected with rat PEPT1) is given as 50%. Moreover, the “Vmax relative to Gly-Sar in the presence of PEPT inhibitor Lys(ε-Dansyl)-Leu” value (rat PEPT transfected oocytes, with Lys(ε-Dansyl)-Leu) is recorded as less than 5%.
